# PMC12037410, “Pharmacological targeting of BMAL1 modulates circadian and immune pathways” (Nature Chemical Biology, 2025)
# Biological target: BMAL1 (Homo sapiens, UniProt O00327)
# Set-up: PASB domain (residues 338–449); Protein thermal shift (PTS) fragment screen on recombinant human BMAL1(PASB), shift of melting temperature
# Settings: dTmB; binder
# Chain of BMAL1 (O00327 338-449): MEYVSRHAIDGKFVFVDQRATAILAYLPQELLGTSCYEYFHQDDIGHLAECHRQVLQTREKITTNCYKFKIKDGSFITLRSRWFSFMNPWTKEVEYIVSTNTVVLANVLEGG
row,Compound,Bmal1(PASB) dTmB [°C]
1,"O=C1CN(Cc2ccccc2)CCN1 [Prestw-Frag-3459, Compound 48]",-0.65
2,"COc1ccc2nc(N)sc2c1 [Prestw-Frag-1898, Compound 305]",1.10
3,"OCc1cccnc1 [Prestw-Frag-2304, Compound 272]",-0.06
4,"CCN(CC)C(=O)/C=C/c1ccccc1 [Prestw-Frag-3088, Compound 429]",-1.63
5,"NCc1cscn1 [Prestw-Frag-3747, Compound 29]",-1.05
6,"c1ccc2c(c1)CNc1ccccc1C2 [Prestw-Frag-1722, Compound 6]",-1.75
7,"COc1ccc2nc[nH]c2c1 [Prestw-Frag-3678, Compound 41]",-0.91
8,"CN1CCN(c2nccc(N)n2)CC1 [Prestw-Frag-1204, Compound 238]",-0.40
9,"Oc1cccc2cccnc12 [Prestw-Frag-2592, Compound 119]",-0.26
10,"OCC(O)COc1ccc(Cl)cc1 (stereo not drawn) [Prestw-Frag-2229, Compound 393]",0.07
11,"Cc1cn[nH]c1C [Prestw-Frag-1408, Compound 109]",-1.01
12,"COc1ccc2nc(SC)[nH]c2c1 [Prestw-Frag-2118, Compound 167]",1.19
13,"CC(O)(C(=O)O)c1ccccc1 (stereo not drawn) [Prestw-Frag-3717, Compound 103]",-0.01
14,"Cc1nc(-c2ccccc2)c(-c2ccccc2)o1 [Prestw-Frag-2695, Compound 471]",-2.25
15,"Fc1ccc(C(c2ccc(F)cc2)N2CCNCC2)cc1 [Prestw-Frag-1323, Compound 452]",-2.55
16,"CS(=O)(=O)c1ccc(CO)cc1 [Prestw-Frag-2234, Compound 220]",-0.40
17,"COc1ccc(CC(C)N)cc1 (stereo not drawn) [Prestw-Frag-3342, Compound 241]",-0.24
18,"Nc1ccn([C@H]2C[C@H](O)[C@@H](CO)O2)c(=O)n1 [Prestw-Frag-3264, Compound 107]",-0.01
19,"CC(=O)c1ccc(N2CCNCC2)c(F)c1 [Prestw-Frag-1094, Compound 141]",-0.42
20,"Nc1ccc(CS(=O)(=O)N2CCCC2)cc1 [Prestw-Frag-3341, Compound 142]",-0.24
21,"C[N+](C)(CCO)Cc1ccccc1 [Prestw-Frag-1017, Compound 159]",-0.27
22,"Fc1cccnc1N1CCCC1 [Prestw-Frag-3150, Compound 24]",-0.14
23,"Clc1ccc(-c2cncnc2)cc1 [Prestw-Frag-1704, Compound 385]",-1.51
24,"CNS(=O)(=O)CCc1ccccc1 [Prestw-Frag-3368, Compound 97]",-0.29
25,"Nc1ncc([N+](=O)[O-])s1 [Prestw-Frag-3324, Compound 478]",-7.14
26,"CNCCC(c1ccccc1)c1ccccc1 [Prestw-Frag-1772, Compound 410]",-1.48

row,Compound,Bmal1(PASB) dTmB [°C]
1,"NCCc1ccc(O)cc1 [Prestw-Frag-2070, Compound 299]",-0.26
2,"NS(=O)(=O)c1ccccc1C(F)(F)F [Prestw-Frag-1394, Compound 374]",-0.07
3,"c1ccc(-n2cccn2)cc1 [Prestw-Frag-3759, Compound 239]",-0.29
4,"Cn1ccccc1=O [Prestw-Frag-2410, Compound 227]",-0.12
5,"CS(=O)(=O)Nc1ccccc1Oc1ccccc1 [Prestw-Frag-1861, Compound 432]",-1.83
6,"Cc1nnc(N)s1 [Prestw-Frag-1161, Compound 49]",-1.77
7,"OCCn1ccnc1 [Prestw-Frag-1303, Compound 120]",0.13
8,"CCN(Cc1ccccc1)c1ccccc1 [Prestw-Frag-1121, Compound 375]",-1.19
9,"O=C1CNS(=O)(=O)c2ccsc21 [Prestw-Frag-2176, Compound 30]",-4.81
10,"Cc1c(C)c2c(c(C)c1O)CCC(C)(C)O2 [Prestw-Frag-2185, Compound 438]",1.30
11,"COc1ccc2[nH]cc(CCN)c2c1 [Prestw-Frag-1480, Compound 3]",3.24
12,"Cc1cccc(C)c1N [Prestw-Frag-2313, Compound 365]",-0.18
13,"Nc1nc2c(s1)CCCC2 [Prestw-Frag-2972, Compound 480]",-5.59
14,"c1ccc(N2CCNCC2)nc1 [Prestw-Frag-1110, Compound 364]",-0.48
15,"O=C(c1ccc(C(F)(F)F)cc1)C1CCCCC1 [Prestw-Frag-3334, Compound 225]",-0.21
16,"c1ccc(-c2nn[nH]n2)cc1 [Prestw-Frag-2887, Compound 426]",0.51
17,"c1ccc(C(c2ccccc2)N2CCCNCC2)cc1 [Prestw-Frag-1817, Compound 445]",-1.89
18,"O=C(CCCN1CCNCC1)c1ccc(F)cc1 [Prestw-Frag-3426, Compound 470]",-0.60
19,"O=C1CCc2ccccc2N1 [Prestw-Frag-2464, Compound 16]",-2.13
20,"O=C(O)CCc1ncc(-c2ccccc2)o1 [Prestw-Frag-2693, Compound 126]",0.10
21,"OCCOc1cccc2[nH]ccc12 [Prestw-Frag-1595, Compound 110]",-0.17
22,"COc1ccc(O)cc1O [Prestw-Frag-2499, Compound 11]",0.28
23,"CCN(CC)Cc1cc(N)ccc1O [Prestw-Frag-1462, Compound 5]",-4.46
24,"CC(C)NCC(O)c1ccccc1 (stereo not drawn) [Prestw-Frag-2168, Compound 193]",-0.58
25,"COc1cc2c(cc1O)CCN[C@H]2C [Prestw-Frag-1063, Compound 388]",-0.57
26,"c1ccc2cnccc2c1 [Prestw-Frag-2493, Compound 131]",-0.12

row,Compound,Bmal1(PASB) dTmB [°C]
1,"c1ccc(C2CCCNCC2)cc1 (stereo not drawn) [Prestw-Frag-3712, Compound 230]",-0.85
2,"c1ccc(CC2CCNCC2)cc1 [Prestw-Frag-1868, Compound 296]",-0.76
3,"O=C1Cc2cc(F)ccc2N1 [Prestw-Frag-3667, Compound 261]",-0.23
4,"O=C1NCN(c2ccccc2)C12CCNCC2 [Prestw-Frag-1869, Compound 339]",-0.72
5,"Oc1cc(Cl)c(Cl)cc1Cl [Prestw-Frag-2898, Compound 59]",-0.02
6,"COc1ccc(CN2CCNCC2)cc1 [Prestw-Frag-2212, Compound 304]",-0.50
7,"O=C(O)CCC(=O)Nc1ccccc1 [Prestw-Frag-2383, Compound 124]",-0.33
8,"Oc1cccc2[nH]ccc12 [Prestw-Frag-3696, Compound 12]",-0.70
9,"c1ccc(-c2ccccc2-c2nn[nH]n2)cc1 [Prestw-Frag-1441, Compound 357]",-0.44
10,"OCCCN1CCN(c2ccccc2)CC1 [Prestw-Frag-1944, Compound 178]",-0.31
11,"NS(=O)(=O)c1ccc(C(=O)O)cc1 [Prestw-Frag-2123, Compound 82]",-0.15
12,"CNS(=O)(=O)c1ccccc1 [Prestw-Frag-2023, Compound 256]",-0.20
13,"Cc1ccc(C#N)c(=O)[nH]1 [Prestw-Frag-2669, Compound 177]",-0.34
14,"S=c1[nH]cc[nH]1 [Prestw-Frag-2373, Compound 253]",-1.25
15,"Cc1ccccc1C(=O)Nc1ccccc1 [Prestw-Frag-3202, Compound 39]",-1.32
16,"O=c1[nH]c2ccccc2o1 [Prestw-Frag-1087, Compound 245]",-0.27
17,"Cc1nc(-c2ccccc2)cs1 [Prestw-Frag-3743, Compound 378]",-0.52
18,"CC(=O)c1ccc2c(c1)Nc1ccccc1S2 [Prestw-Frag-2239, Compound 65]",0.31
19,"O=C1CNCN1 [Prestw-Frag-3718, Compound 116]",-0.07
20,"Nc1ccnc2ccccc12 [Prestw-Frag-1878, Compound 323]",-0.67
21,"COc1ccc(CCN)cc1O [Prestw-Frag-1064, Compound 320]",-0.32
22,"NCCc1ccc(F)cc1F [Prestw-Frag-3746, Compound 138]",-0.34
23,"COc1ccc(CNCCN(C)C)cc1 [Prestw-Frag-1887, Compound 172]",-0.14
24,"c1ccc(CCn2ccnc2)cc1 [Prestw-Frag-2608, Compound 366]",-0.49
25,"CCC(C(=O)OCCN(CC)CC)c1ccccc1 (stereo not drawn) [Prestw-Frag-1343, Compound 396]",-1.01

# Same assay, conditions: dTmB; binder; Bmal1(PASB) dTmB
row,Compound,Bmal1(PASB) dTmB [°C]
1,"CC1=NN(c2ccccc2)C(=O)C1 [Prestw-Frag-1028, Compound 259]",0.76
